Experimental data reported in patent publication US10669312B2, “Peptide for suppressing osteoclast differentiation and use thereof” (CAREGEN CO., LTD., priority 2013, dated 2020).
“Also recorded” adds a separate entry of the source. Ends that are not written are not given here.

Tests used:
Assay type in all cases: cell-based
[1] = tested on: Raw264.7 cells; assay: Osteoclast differentiation inhibition, TRAP staining; conditions: 10 ng/ml RANKL, 50 ng/ml TNF-α, 1 or 10 μg/ml peptide, five days
Protocol: In order to analyze the IL-3-like action and the inhibitory action of the peptides of SEQ ID NO: 1 and SEQ ID NO: 2, synthesized in synthetic example 1, TRAP staining was conducted using Raw264.7 strain differentiable into osteoclasts while referring to methods, such as tartrate-resistant acid phosphatase staining (Rizzino, et al. Cancer Res. 48:4266(1988)).
Raw264.7 cell lines (ATCC) were cultured in Dulbecco's modified Eagle's medium (DMEM, Gibco, U.S.A.) supplemented with 10% fetal bovine serum (FBS, Sigma) using each 250 ml-flask for tissue culture. The cultured cell lines were carefully detached from the bottom of the culture container using a pipette, followed by centrifugation, to obtain only cell precipitates. The cell precipitates were re-suspended in DMEM culture medium supplemented with 10% FBS, and then added to a […] for tissue culture plate at 1×10^4 cells per each well. For the induction of differentiation, the blank sample and RAW264.7 cells were treated with 10 ng/ml RANKL, 50 ng/ml TNF-α, and 1 μg/ml or 10 μg/ml synthesized peptides dissolved in 10% distilled water in a sterile state, […] After 72 hours, the medium was changed with the same culture liquid, and then the blank sample and the cells were treated with 10 ng/ml RANKL, 50 ng/ml TNF-α, and 1 μg/ml or 10 μg/ml synthesized peptides, and then cultured under the same conditions for 48 hours. […]

[2] = tested on: TRAP; assay: TRAP activity in differentiated Raw264.7 cells, absorbance 405 nm; conditions: 10 ng/ml RANKL, 50 ng/ml TNF-α, 1 or 10 μg/ml peptide, five days
Protocol: Raw264.7 cells were treated in combination with 10 ng/ml RANKL, 50 ng/ml TNF-α, or the 1 or 10 μg/ml peptide synthesized in synthetic example 1 to induce differentiation for five days, and then the inhibition degree of the activity of TRAP, an osteoclast differentiation marker, was tested. After culture, the culture liquid was removed, and then 100 μl of a lysis buffer (20 mM tris buffer, 3% triton X-100) was added to disrupt cell walls. A reaction solution is prepared from 500 μl of a citrate solution (18 mM citric acid, 9 mM sodium chloride, 12 mM surfactant; pH 3.5), 50 μl of a tartrate solution, and 500 μl of a 20 mM phosphate substrate. 100 μl of the lysate and 100 μl of the reaction solution were added in the same amount, and then the reaction was conducted at 37° C. for 30 minutes. For colorimetric analysis, the absorbance was determined at 405 nm using a spectrophotometer. It was validated that, in cases where the treatment with the peptide of SEQ ID NO: 1 or SEQ ID NO: 2 together with RANKL and TNF-α, the peptides inhibited the activity of TRAP, which is an osteoclast differentiation marker, in a concentration-dependent manner (FIGS. 4a and 4b).

[3] = tested on: osteocalcin (OCN); assay: Osteoblast differentiation marker mRNA expression (PCR), OCN; conditions: MC3T3-E1 cells, 10 or 50 μg/ml peptide, two days
Protocol: (§1) MC3T3-E1 cells were treated with 10 or 50 μg/ml of the peptides synthesized in synthetic example 1 to induce the differentiation for two days, and tests for verifying the mRNA expression of osteoblast differentiation markers, such as osteocalcin (OCN), osteoprotegerin (OPG), bone sialoprotein (BSP), and osteopontin (OPN), were conducted. Target-specific primer sequences used in PCR were as follows: OCN forward primer sequence, [NT] (SEQ ID NO:15) and OCN reverse primer sequence, [NT] (SEQ ID NO:16) (annealing temperature, 60° C.); OPG forward primer sequence, [NT] (SEQ ID NO:17) and OPG reverse primer sequence, [NT] (SEQ ID NO:18) (annealing temperature, 60° C.); BSP forward primer sequence, [NT] (SEQ ID NO:19) and BSP reverse primer sequence, [NT] (SEQ ID NO:20) (annealing temperature, 60° C.); OPN forward primer sequence, [NT] ID NO:21) and OPN reverse primer sequence, [NT] ID NO:22) (annealing temperature, 50° C.). […] Therefore, the peptides of the present invention can promote osteoblast differentiation by increasing the genetic expressions of OCN, OPG, BSP, and OPN, which are osteoblast differentiation markers.

[4] = tested on: osteoprotegerin (OPG); assay: Osteoblast differentiation marker mRNA expression (PCR), OPG; conditions: MC3T3-E1 cells, 10 or 50 μg/ml peptide, two days
Protocol: as §1

[5] = tested on: bone sialoprotein (BSP); assay: Osteoblast differentiation marker mRNA expression (PCR), BSP; conditions: MC3T3-E1 cells, 10 or 50 μg/ml peptide, two days
Protocol: as §1

[6] = tested on: osteopontin (OPN); assay: Osteoblast differentiation marker mRNA expression (PCR), OPN; conditions: MC3T3-E1 cells, 10 or 50 μg/ml peptide, two days
Protocol: as §1

[7] = tested on: pSmad1/5/8; assay: Osteogenic differentiation signal, Smad1/5/8 phosphorylation, western blotting; conditions: MC3T3-E1 cells, serum-starved 24 hours, 10 μg/ml peptide, 30 minutes
Protocol: In order to verify whether pSmad1/5/8, which is a signal involved in osteogenic differentiation, was activated by the present peptides, MC3T3-E1 cells were dispensed into 6-well plates at 2×10^5 cells, and then cultured for 24 hours under the conditions of 37° C. and 5% CO2. After 24 hours, the medium was changed with a serum-free medium, and then the cells were starved for 24 hours, treated with the 10 μg/ml peptides or 50 ng/ml BMP2, used as a positive control, for 30 minutes, washed with PBS, and dissolved in a lysis buffer, thereby obtaining proteins, which were then subjected to western blotting.

| Sequence | RANKL- and TNF-α-induced differentiation of Raw264.7 into osteoclasts [1] | activity of TRAP, osteoclast differentiation marker [2] | mRNA level of osteocalcin (OCN) [3] | mRNA level of osteoprotegerin (OPG) [4] | mRNA level of bone sialoprotein (BSP) [5] | mRNA level of osteopontin (OPN) [6] | phosphorylation of Smad1/5/8 [7] |
| --- | --- | --- | --- | --- | --- | --- | --- |
| RRKLTFYLKTLE [SEQ ID NO: 2, IL-3-derived synthetic peptide, 12 amino acids] | inhibit | inhibited | increased | increased | increased | increased | led to the phosphorylation of Smad1/5/8; also recorded: increased |
| NCSNMICEIITH (cysteine pairing not given here) [SEQ ID NO: 1, IL-3-derived synthetic peptide, 12 amino acids] | inhibit | inhibited | increased | increased | increased | increased | led to the phosphorylation of Smad1/5/8; also recorded: increased |
